# Assay results as given in patent US20190201377A1, “METHODS AND COMPOSITIONS FOR TREATMENT OF LIPID STORAGE DISORDERS” (Neurotrope BioScience, Inc., priority 2014, published 2019).
# What was measured:
# M12 NPC1 CHO cells [1] = assay: Cholesterol storage by filipin staining in NPC1 CHO (M12) cells; type: cell-based, Chinese hamster; conditions: for filipin fluorescence, % of levels in untreated cells: oleic/linoleic acids for 48 hours, M12 CHO cells
# Procedure: The human wild-type fibroblast (GM05387), NPC1o fibroblast (GM09341), and NPC1 fibroblast (GM03123) cell lines were obtained from Coriell Cell Repositories (Camden, N.J.). The M12 Chinese hamster ovary (CHO) cell line and its wild-type parental line were obtained and cultured. Fibroblast cell lines were cultured in DMEM, and CHO cells were cultured in DMEM/F12 (50:50) medium, supplemented with 10% FBS, 2 mM L-glutamine, and 50 μg/ml gentamicin in a humidified incubator at 37° C. with 5% CO2. For filipin staining in transfected cells, cells were transfected with PKC or Rab9 using Fugene 6 according to the manufacturer's recommendations. After 48 hrs, cells were stained with filipin as we have previously described [3 7]. Cells were mounted onto slides using Fluoromount-G (Southern Biotech, Birmingham, Ala.) and analyzed on a Nikon Eclipse microscope fitted with a charge-coupled-device camera (Nikon, Melville, N.Y.). Images were acquired with MetaVue software and then deconvoluted using AutoDeblur software from AutoQuant Imaging, Inc (Troy, N.Y.). For quantitation of filipin fluorescence, cells were seeded at 3×10^5 cells/well in 6-well dishes and allowed to settle overnight, after which the medium was replaced with medium containing 10% lipoprotein deficient serum (LPDS) for 4 days. Cells were incubated with oleic/linoleic acids for 48 hours, […] for 24 hrs, or diazoxide for 72 hrs before fixing and staining with filipin as we have previously described. Images were acquired using the same exposure time for all samples. Fluorescence intensity was determined using the integrated intensity function of MetaVue software; at least 150 cells were quantitated for each sample and each experiment was repeated 3 times. For analysis of sphingolipid transport, cells were incubated with oleic/linoleic acids, DCP-LA, or PMA for 48 hours before BODIPY-LacCer staining was performed as previously described.
# human NPC1 3123 cells [2] = assay: Sphingolipid transport by BODIPY-LacCer staining; type: cell-based; conditions: 48 hours
# From the text: For filipin staining in transfected cells, cells were transfected with PKC or Rab9 using Fugene 6 according to the manufacturer's recommendations. After 48 hrs, cells were stained with filipin as we have previously described [3 7]. Cells were mounted onto slides using Fluoromount-G (Southern Biotech, Birmingham, Ala.) and analyzed on a Nikon Eclipse microscope fitted with a charge-coupled-device camera (Nikon, Melville, N.Y.). Images were acquired with MetaVue software and then deconvoluted using AutoDeblur software from AutoQuant Imaging, Inc (Troy, N.Y.). For quantitation of filipin fluorescence, cells were seeded at 3×10^5 cells/well in 6-well dishes and allowed to settle overnight, after which the medium was replaced with medium containing 10% lipoprotein deficient serum (LPDS) for 4 days. Cells were incubated with oleic/linoleic acids for 48 hours, DCPLA/DHA for 24 hrs, or diazoxide for 72 hrs before fixing and staining with filipin as we have previously described. Images were acquired using the same exposure time for all samples. Fluorescence intensity was determined using the integrated intensity function of MetaVue software; at least 150 cells were quantitated for each sample and each experiment was repeated 3 times. For analysis of sphingolipid transport, cells were incubated with oleic/linoleic acids, DCP-LA, or PMA for 48 hours before BODIPY-LacCer staining was performed as previously described.
# To further confirm the positive effects of DCP-LA and fatty acids on the NPC1 phenotype, human NPC1 cells were treated with DCP-LA, fatty acids, or PMA to activate PKCs. […] Following absorption to the plasma membrane, the LacCer sphingolipid enters normal cells via endocytosis and eventually reaches the trans-Golgi network (TGN; [30]). […] Human NPC1 cells treated as indicated in FIG. 7 show a dramatic improvement in lipid transport with the BODIPY-LacCer effectively reaching the TGN (FIG. 7; arrows) compared to untreated cells that show only punctate, endosomal fluorescence (FIG. 7A).
# NPC3-SV cells [3] = assay: Stored cholesterol by filipin staining in NPC3-SV cells; type: cell-based, Human; conditions: for clearance of cholesterol from NPC1 cells: 48 h, FIG. 8, different drug concentrations; for stored cholesterol levels: 72 h, FIG. 9
# Procedure: (§1) Cells are plated in 6-well dishes and treated with the appropriate compound (dissolved in DMSO) at the indicated dose daily for 48 hrs. Control cells receive DMSO. After 48 hrs cells are transferred to cover slips with fresh compound and grown for another 24 hrs. Cover slips are collected and processed for microscopy.
# (§2) For detection of unesterified cholesterol in lysosomes, cells were fixed in formalin for 30 min at 4° C., washed 2×, 5 min in 0.9% NaCl, incubated for 45 min with 0.01% filipin in PBS at room temperature, and then washed 2×, 5 min. Fluorescence was observed using a Nikon Eclipse fluorescence microscope (Nikon, Melville, N.Y.) equipped with a CCD camera. Fluorescence signals were quantified using Nikon's imaging and quantitation software package NIS Elements, v.3.22.
# NPC3-SV cells [4] = type: cell-based, Human
# NPC3SV cells = type: cell-based, Human
# human NPC24-SV cells [5] = assay: Cholesterol accumulation by filipin staining in NPC24-SV cells; type: cell-based; conditions: for effect in cholesterol assay: NPC24-SV cells, FIG. 13
# Procedure: as §1, §2
# NPC cells = conditions: PMA treatment of NPC cells, earlier study [5]; cited from earlier work
# human NPC24-SV cells [6] = assay: Glycosphingolipid accumulation by VTB staining in NPC24-SV cells; type: cell-based
# C57 NPC1 mice = assay: Treatment of C57 NPC1 mice, life span; type: in vivo, mouse
# Procedure: A total of […] C57B16 NPC1 mice, mixed sex, were used. These mice were separated into […], Groups 1-5.
# Bryostatin 1 (purity ≥:95%) from Aphios (Woburn, Mass.), 1 vial 2 mg, was solubilized in a 5% DMSO, 20% Solutol and 75% Saline solution and used as the study drug. The negative (vehicle) control is a 5% DMSO, 20% Solutol and 75% Saline solution. DCP-LA from Sigma-Aldrich: 5 mg oil/vial was used as an additional in vitro active compound. Bryostatin 1 (API) was stored at or below −20° C. and formulated as needed. The formulated bryostatin 1 was stored at 2° to 8° C. for less than 24 hour(s). The DCP-LA and the vehicle controls were stored at 2°-8° C.
# The stock solution of bryostatin 1 is 1 Omg/ml in DMSO, which is kept at −80° C. in aliquots. The dosing formulation is made by diluting the stock first in DMSO, then adding solutol, and lastly saline-with more insoluble compounds, adding the drug stock to complete vehicle will cause the compound to come out of solution, so we make formulations stepwise. The dosing volume is always 100 μl. Mice weigh approximately 20 g.
# The mice are dosed twice weekly (Mon and Thu) starting at 30 days for up to 150 days.
# C57 NPC1 mice have an average life span of ˜110 days. By Day 70 mice reach an average weight of 18-22 grams. Untreated NPC1 mice develop ataxia and will begin to lose weight at ˜70 days (see FIG. 17). Ataxia (or lack of voluntary muscle control) is a clinical feature of NPC1 mice, which may be described as shaking. Treatment will be initiated at ˜30 days of age, average NPC mouse weight of 10 g. If the drug is efficacious injections will continue past day 70-80. An extension of life of about 20-30% will mean that animals will need to be treated up to day 130-150.
# human NPC1 3123 cells [7] = assay: Cholesterol storage by filipin staining in human NPC1 3123 fibroblasts; type: cell-based; conditions: oleic/linoleic acids for 48 hours
# Procedure: The human wild-type fibroblast (GM05387), NPC1o fibroblast (GM09341), and NPC1 fibroblast (GM03123) cell lines were obtained from Coriell Cell Repositories (Camden, N.J.). The M12 Chinese hamster ovary (CHO) cell line and its wild-type parental line were obtained and cultured. Fibroblast cell lines were cultured in DMEM, and CHO cells were cultured in DMEM/F12 (50:50) medium, supplemented with 10% FBS, 2 mM L-glutamine, and 50 μg/ml gentamicin in a humidified incubator at 37° C. with 5% CO2. For filipin staining in transfected cells, cells were transfected with PKC or Rab9 using Fugene 6 according to the manufacturer's recommendations. After 48 hrs, cells were stained with filipin as we have previously described [3 7]. Cells were mounted onto slides using Fluoromount-G (Southern Biotech, Birmingham, Ala.) and analyzed on a Nikon Eclipse microscope fitted with a charge-coupled-device camera (Nikon, Melville, N.Y.). […] For quantitation of filipin fluorescence, cells were seeded at 3×10^5 cells/well in 6-well dishes and allowed to settle overnight, after which the medium was replaced with medium containing 10% lipoprotein deficient serum (LPDS) for 4 days. […] Fluorescence intensity was determined using the integrated intensity function of MetaVue software; at least 150 cells were quantitated for each sample and each experiment was repeated 3 times. […]
# M12 NPC1 CHO cells [8] = assay: Cholesterol esterification assay in M12 NPC1 CHO cells; type: cell-based, Chinese hamster; conditions: for esterification levels over untreated cells: 50 μg/ml fatty acid for 2 days followed by expression of PKC ε
# Procedure: The preparation of [3H] oleate substrate and esterification assays were performed as previously described. Cells were treated with 50 μg/ml fatty acid for 2 days and then transfected with […] or PKCε for 24 hrs before esterification assays. All values were generated in triplicate and normalized for total cell protein.
structure (smiles),measurement,setting,value
"CCCCCC1CC1CC1CC1CCCCCCCC(=O)O (stereo not shown) [DCP-LA, 8-[2-(2-pentylcyclopropylmethyl)-cyclopropyl]-octanoic acid]",reduction of cholesterol storage (filipin intensity),"M12 NPC1 CHO cells [1]; 100 μM DCP-LA, 24 hrs (overnight)",~50%
same,BODIPY-LacCer transport to the trans-Golgi network,human NPC1 3123 cells [2]; 20 μM DCP-LA,the lipid can be seen in the TGN
same,clearance of cholesterol from NPC1 cells,NPC3-SV cells [3],able to induce clearance of cholesterol
same,stored cholesterol levels,NPC3-SV cells [3],decrease stored cholesterol levels
same,stored glycosphingolipid levels (VTB),NPC3-SV cells [4],decrease stored glycosphingolipid levels
same,ganglioside transport block (CTB),"NPC3SV cells; DCPLA, concentration not given, NPC3SV cells, FIG. 12",release the ganglioside transport block
same,filipin accumulation,"human NPC24-SV cells [5]; DCPLA, concentration not given, NPC24-SV cell line, FIG. 11",decrease filipin accumulation
"CC/C=C\C/C=C\C/C=C\C/C=C\C/C=C\C/C=C\CCC(=O)O [DHA, docosahexanoic acid]",reduction of cholesterol storage (filipin intensity),"M12 NPC1 CHO cells [1]; 10 μM DHA, 24 hrs (overnight)",~50%
"CCCCCCCCCCCCCC(=O)O[C@@H]1[C@@H](C)[C@@]2(O)[C@@H](C=C(CO)C[C@]3(O)C(=O)C(C)=C[C@@H]23)[C@@H]2C(C)(C)[C@]12OC(C)=O [PMA, phorbol-12-myristate-13-acetate]",BODIPY-LacCer transport to the trans-Golgi network,human NPC1 3123 cells [2]; 100 nM PMA,the lipid can be seen in the TGN
same,NPC lipid storage phenotype,NPC cells,ameliorated the NPC lipid storage phenotype
CCC/C=C/C=C/C(=O)O[C@H]1/C(=C/C(=O)OC)C[C@H]2C[C@H]([C@@H](C)O)OC(=O)C[C@H](O)C[C@@H]3C[C@H](OC(C)=O)C(C)(C)[C@](O)(C[C@@H]4C/C(=C/C(=O)OC)C[C@H](/C=C/C(C)(C)[C@]1(O)O2)O4)O3 [bryostatin 1],clearance of cholesterol from NPC1 cells,NPC3-SV cells [3],able to induce clearance of cholesterol
same,stored cholesterol levels,NPC3-SV cells [3],most active compound showing activity in the nanomolar concentration range
same,glycosphingolipid accumulation (VTB),NPC3-SV cells [4],statistically significant effectiveness in decreasing the glycosphingolipid accumulation
same,clearance of endosome-trapped cholera toxin (CTB),NPC3SV cells,able to clear the endosome-trapped cholera toxin (CTB)
same,effect in cholesterol assay,human NPC24-SV cells [5]; 0.1 nM,no effect
same,effect in cholesterol assay,"human NPC24-SV cells [5]; 1 nM, increases with increasing concentration",statistically significant
same,cholesterol clearance,"human NPC24-SV cells [5]; 10 nM bryostatin 1, NPC24-SV cell line, FIG. 11",able to effect cholesterol 2 clearance
same,concentration showing a positive therapeutic effect for human NPC1 disease cells,human NPC24-SV cells [5]; summary of the cholesterol and glycosphingolipid assays of Example 2,10 to 100 nM
same,effect in sphingolipid assay,"human NPC24-SV cells [6]; 0.1 nM, FIG. 14",no effect
same,effect in sphingolipid assay,"human NPC24-SV cells [6]; 1 nM, FIG. 14, increases with increasing concentration",statistically significant
same,age that mice lived past,C57 NPC1 mice; 10 μg/kg IP twice weekly starting at 30 days,> 100 days
same,age that mice lived past,C57 NPC1 mice; 20 μg/kg IP twice weekly starting at 30 days,> 100 days
same,age that mice lived past,C57 NPC1 mice; 30 μg/kg IP twice weekly starting at 30 days,> 100 days
CC1=NS(=O)(=O)c2cc(Cl)ccc2N1 [diazoxide],reduction of cholesterol storage (filipin intensity),"M12 NPC1 CHO cells [1]; 100 μM diazoxide, 72 hrs",~50%
same,clearance of cholesterol from NPC1 cells,NPC3-SV cells [3],able to induce clearance of cholesterol
CCCCC/C=C\C/C=C\CCCCCCCC(=O)O [linoleic acid],"filipin fluorescence, % of levels in untreated cells",M12 NPC1 CHO cells [1],~75%
same,"filipin fluorescence, % of levels in untreated cells",human NPC1 3123 cells [7],~75%
same,increase of cholesterol esterification compared to untreated M12 cells,M12 NPC1 CHO cells [8]; 50 μg/ml fatty acid for 2 days,greater than 2 fold
same,esterification levels over untreated cells,M12 NPC1 CHO cells [8],~3.5 fold
same,BODIPY-LacCer transport to the trans-Golgi network,human NPC1 3123 cells [2]; 2 μg/ml linoleic acid,the lipid can be seen in the TGN
"CCCCCCCC/C=C\CCCCCCCC(=O)O [oleic acid, cis-9-octadecenoic acid]","filipin fluorescence, % of levels in untreated cells",M12 NPC1 CHO cells [1],~75%
same,"filipin fluorescence, % of levels in untreated cells",human NPC1 3123 cells [7],~75%
same,esterification levels over untreated cells,M12 NPC1 CHO cells [8],~3.5 fold
same,BODIPY-LacCer transport to the trans-Golgi network,human NPC1 3123 cells [2]; 2 μg/ml oleic acid,the lipid can be seen in the TGN
